Like-named read-outs stand apart in the source and are kept apart here.
Key:
liver [1] = assay: EGFP expression in liver tissue sections of mice administered EGFP mRNA-loaded lipid nanoparticles (confocal microscopy); type: in vivo, Balb/c mice; conditions: Example 27, Fig. 6; EGFP mRNA-loaded lipid nanoparticles TxT/DSPC/chol/PEG-DMG=50/3/47/1.5 (mol%); 24 hours post-administration
Protocol: Subsequently, each EGFP mRNA-loaded lipid nanoparticle was administered to Balb/c mice at a dose of 0.2 mg mRNA/kg. At 23 hours and 50 minutes post-administration, fluorescently labeled lectin (DyLight-649 Lycopersicon (Tomato) Lectin) was intravenously injected via the tail vein at 40 µg/mouse to fluorescently label vascular endothelial cells. At 24 hours after administration of the lipid nanoparticles, the mice were euthanized, and their livers were collected to prepare tissue sections. For nuclear staining, the tissue sections were immersed in a nuclear staining solution (1 µg/mL Hoechst 33342 dissolved in PBS(-)), cooled on ice, and incubated for at least 30 minutes in the dark. The stained tissue sections were then observed using a confocal laser scanning microscope. Subsequently, in the same manner as Example 26, each EGFP mRNA-loaded lipid nanoparticle was administered to Balb/c mice. At 23 hours and 50 minutes post-administration, fluorescently labeled lectin was administered. At 24 hours after administration of the lipid nanoparticles, the mice were euthanized, and their livers were collected to prepare tissue sections. Each tissue section was observed using a confocal laser scanning microscope. In the figure, the upper panels show fluorescence images of EGFP, and the lower panels show fluorescence images of vascular endothelial cells (fluorescently labeled lectin).

[2] = Average particle size and polydispersity index of lipid nanoparticles (dynamic light scattering); type: physicochemical
Protocol: (§1) The average particle size (number average value), ζ-average particle size, and polydispersity index (PdI) of the lipid nanoparticles in PBS(-) (pH 7.4), and the zeta potential in 10 mM HEPES buffer (pH 7.4) were measured using an analyzer "Zetasizer Nano ZS ZEN3600" (manufactured by Malvern) utilizing dynamic light scattering.

[3] = Zeta potential of lipid nanoparticles; type: physicochemical
Protocol: as §1

[4] = lipid nanoparticles, tns
Protocol: (§4) The apparent pKa of the lipid nanoparticles was measured using p-toluenesulfonic acid (TNS). First, TNS (final concentration: 0.75 µM) and lipid nanoparticles (final concentration: 30 µM) were mixed in a buffer (200 mL) adjusted to each pH (pH 3.5 to 9.5). As the buffer, 20 mM citrate buffer, 20 mM sodium phosphate buffer, or 20 mM Tris-HCl buffer containing 130 mM NaCl was used. The fluorescence intensity of the prepared mixture was measured using a fluorescence spectrophotometer (Varioskan Lux, manufactured by Thermo Fisher Scientific) with the settings of λex=321 nm and λem=447 nm. Among the measured values, the highest value and the lowest value were set as 100% and 0% ionization degrees, respectively, and the pH showing a 50% ionization degree was calculated as the apparent pKa. The content ratio (%) of cationically charged pH-sensitive cationic lipid was calculated using the Henderson-Hasselbalch equation.

[5] = Encapsulation rate of lipid nanoparticles (Ribogreen); type: physicochemical
Protocol: The encapsulation rate of the lipid nanoparticles was determined by measuring the amount of encapsulated nucleic acid (mRNA) using Ribogreen (manufactured by Life Technologies), which is an RNA intercalator. The mRNA amount was quantified based on a calibration curve prepared from a series of diluted mRNA solutions at known concentrations.
Specifically, 10 mM HEPES buffer (pH 7.4), 10 w/v% Triton X-100, and Ribogreen were mixed at 978.8 µL, 20 µL, and 1.25 µL per 10 wells, respectively, to obtain a Triton(+) buffer. A Triton(-) buffer was obtained in replacing Triton X-100 with 10 mM HEPES buffer (pH 7.4). 100 µL/well of the sample was added to a black 96-well plate for fluorescence measurement, and 100 µL/well of Triton(+) buffer or Triton(-) buffer was added. After the plate was gently shaken on a shaking incubator (SI-300, manufactured by AS ONE) (700 rpm, 30 seconds), the fluorescence intensity of each well was measured using a microplate reader (VARIOSKAN LUX, manufactured by Thermo Fisher Scientific) (wavelength Ex/Em=500 nm/525 nm), and the nucleic acid encapsulation rate (%) was calculated.

liver [6] = assay: Fluc activity in the liver of mice administered Fluc mRNA-loaded lipid nanoparticles; type: in vivo, BALB/c mice; conditions: Example 31, Fig. 10; Fluc mRNA-loaded lipid nanoparticles containing 3 mol% DSPC; N = 3
Protocol: (§2) Lipid nanoparticles were administered to mice by intravenous injection into the tail vein using a 27G needle. Unless otherwise specified, BALB/c mice (4 to 5 weeks old, female) were used.
(§3) First, BALB/c mice (female, 4 weeks old) were intravenously injected with lipid nanoparticles encapsulating Fluc mRNA (Fluc mRNA-loaded lipid nanoparticles) at a dose of 0.1 mg mRNA/kg. Six hours after intravenous injection, the mice were euthanized, each tissue was collected, frozen in liquid nitrogen, and stored at -80°C. The tissues were homogenized in passive lysis buffer (manufactured by Promega) using a bead-type cell disruptor (Micro Smash MS-100R, manufactured by TOMY Seiko). Tissue debris was removed by centrifugation, and the supernatant was collected. Fluc activity in the supernatant was measured using the Luciferase Assay System (E1500, manufactured by Promega) according to the manufacturer's protocol. Luminescence was measured using a luminometer (Luminescencer-PSN, manufactured by ATTO). Protein concentration was determined using a commercially available assay kit (BCA Protein Assay Kit, manufactured by Pierce). Fluc activity was expressed as relative light units (RLU) per mg of protein.
Subsequently, lipid nanoparticles encapsulating Fluc mRNA prepared using TxT-5-5A10, TxT-5-5A12, TxT-5-5A12β, TxT-5-5A14, and TxT-5-5A16 were administered to mice to evaluate luciferase expression levels (Fluc activity) in various tissues. Specifically, each Fluc mRNA-loaded lipid nanoparticle was administered to Balb/c mice at a dose of 0.1 mg mRNA/kg. Six hours after administration, the mice were euthanized, and their organs were collected to measure Fluc activity (RLU/mg protein) (N = 2 or 4).

various tissues = assay: Fluc activity in various tissues of mice administered Fluc mRNA-loaded lipid nanoparticles; type: in vivo, BALB/c mice; conditions: Example 31, Fig. 10; Fluc mRNA-loaded lipid nanoparticles containing 3 mol% DSPC; N = 3
Protocol: as §2
as §3, with “protein. […]” for “protein.”

[7] = Apparent pKa of lipid nanoparticles (TNS)
Protocol: as §4

factor VII (F7) = conditions: mouse liver; siRNA; cited from earlier work
spleen = assay: Fluc activity in the spleen of mice administered Fluc mRNA-loaded lipid nanoparticles; type: in vivo, BALB/c mice; conditions: Example 22, Fig. 1; TxT/DSPC/chol/PEG-DMG=50/15/35/1.5 (mol%); 0.1 mg mRNA/kg intravenous; six hours after administration; comparison among TxT lipids
Protocol: as §2
as §3, with “protein. […]” for “protein.”

[8] = Table 3, Fluc mRNA-loaded lipid nanoparticles, TxT/DSPC/chol/PEG-DMG=50/3/47/1.5 (mol%)
[9] = Table 5, EGFP mRNA-loaded lipid nanoparticles, TxT/DSPC/chol/PEG-DMG=50/3/47/1.5 (mol%), total flow rate 3.0 mL/min
[10] = Table 8 (Example 32), lipid nanoparticles for TTR-targeted genome editing, Cas9-mRNA and TTR-gRNA 1:2 (N/P = 6.0), TxT/DSPC/chol/PEG-DMG = 50/3/47/1.5 (mol%)
[11] = Table 4, Fluc mRNA-loaded lipid nanoparticles, TxT-5-5A14/DSPC/chol/PEG-DMG=50/3/47/1.5, SM-102, ALC-0315 or MC3/DSPC/chol/PEG-DMG=50/10/40/1.5 (mol%)
[12] = Table 1, Fluc mRNA-loaded lipid nanoparticles, TxT/DSPC/chol/PEG-DMG=50/15/35/1.5 (mol%)

| Pdl [2, 8] | number average particle size [2, 8] [nm] | ζ-average particle size [2, 8] [nm] | Pdl [2, 9] | number average particle size [2, 9] [nm] | ζ-average particle size [2, 9] [nm] | ζ-potential [3, 8] [mV] | ζ-potential [3, 9] [mV] | pKa [4] | mRNA concentration [5, 8] [µg/µL] | mRNA encapsulation rate [5, 8] [%] | mRNA concentration [5, 9] [µg/µL] | mRNA encapsulation rate [5, 9] [%] | Compound | fluorescence of EGFP in the liver tissues (liver [1]) | ED50 in factor VII (F7) knockdown (factor VII (F7)) [mg siRNA/kg] | also measured |
| --- | --- | --- | --- | --- | --- | --- | --- | --- | --- | --- | --- | --- | --- | --- | --- | --- |
| 0.14 | 92.2 | 133.1 | 0.10 | 85.3 | 129.5 | -8.9 | -4.2 | 6.68 | 0.022 | 96.5 | 0.021 | 97.3 | 2-(6-(didodecylamino)-2,6-dioxohexyl)-2-(3-(piperidin-1-yl)propanamido)propane-1,3-diyl bis(5-(didodecylamino)-5-oxopentanoate) [TxT-5-5A24] | fluorescence of EGFP was observed | – | gene expression in hepatocytes (liver [1]): notably high levels of gene expression; average particle diameter, comparison among TxT lipids ([2]; Example 32, Table 8, lipid nanoparticles for TTR-targeted genome editing): smallest average particle diameter; Pdl [2, 10]: 0.12; number average particle size [2, 10]: 53.1 nm; ζ-average particle size [2, 10]: 73.8 nm; ζ-potential [3, 10]: -6.5 mV; mRNA concentration [5, 10]: 0.541 µg/µL; mRNA encapsulation rate [5, 10]: 98.4% |
| – | – | – | – | – | – | – | – | – | – | – | – | – | 2-((2-(2-((diheptylamino)methyl)cyclohexyl)acetoxy)methyl)-2-(3-(piperidin-1-yl)propanamido)propane-1,3-diyl bis(2-(diheptylcarbamoyl)cyclohexane-1-carboxylate) [TxT-5-4(6)A14] | – | – | Fluc activity in the liver relative to spleen and lung (liver [6]): particularly high activity confirmed in the liver; Fluc activity in the liver, spleen, and lung (various tissues): Fluc activity was observed in the organs, i.e., liver, spleen, and lungs |
| – | – | – | – | – | – | – | – | – | – | – | – | – | CCCCC/C=C\C/C=C\CCCCCCCCC(CCCCCCCC/C=C\C/C=C\CCCCC)OC(=O)CCCN(C)C [MC3, DLin-MC3-DMA, reference compound] | – | 0.005 | Pdl [2, 11]: 0.20; number average particle size [2, 11]: 51.8 nm; ζ-average particle size [2, 11]: 83.6 nm; ζ-potential [3, 11]: -6.8 mV; pKa [7, 11]: 6.23; mRNA concentration [5, 11]: 0.021 µg/µL; mRNA encapsulation rate [5, 11]: 98.8% |
| 0.10 | 124.5 | 155.2 | 0.13 | 80.2 | 114.4 | -6.7 | -9.4 | – | 0.019 | 85.9 | 0.019 | 95.5 | CCCCCCN(CCCCCC)C(=O)CCCC(=O)OCC(COC(=O)CCCC(=O)N(CCCCCC)CCCCCC)(COC(=O)CCCC(=O)N(CCCCCC)CCCCCC)NC(=O)CCN1CCCCC1 [TxT-5-5A12, 2-(((5-(dihexylamino)-5-oxopentanoyl)oxy)methyl)-2-(3-(piperidin-1-yl)propanamido)propane-1,3-diyl bis(5-(dihexylamino)-5-oxopentanoate)] | fluorescence of EGFP was observed | – | Pdl [2, 12]: 0.08; number average particle size [2, 12]: 124.5 nm; ζ-average particle size [2, 12]: 155.2 nm; Fluc activity in the spleen (spleen): highest Fluc activity in the spleen; ζ-potential [3, 12]: -6.7 mV; pKa ([7]; Table 1, apparent pKa of Fluc mRNA-loaded lipid nanoparticles, TxT/DSPC/chol/PEG-DMG=50/15/35/1.5 (mol%)): 6.44; pKa [7, 8]: 6.58; mRNA concentration [5, 12]: 0.019 µg/µL; mRNA encapsulation rate [5, 12]: 85.9% |
| 0.22 | 61.6 | 103.7 | 0.07 | 59.1 | 81.4 | -11.2 | -6.0 | 4.99 | 0.019 | 96.0 | 0.020 | 97.9 | CCCCC(CC)CN(CC(CC)CCCC)C(=O)CCCC(=O)OCC(COC(=O)CCCC(=O)N(CC(CC)CCCC)CC(CC)CCCC)(COC(=O)CCCC(=O)N(CC(CC)CCCC)CC(CC)CCCC)NC(=O)CCN1CCCCC1 (stereo not drawn) [TxT-5-5A16b] | fluorescence of EGFP was observed | – | – |
| – | – | – | – | – | – | – | – | – | – | – | – | – | CCCCC/C=C\C/C=C\CCCCCCCCOC1(OCCCCCCCC/C=C\C/C=C\CCCCC)CCN(C)CC1 [YSK05] | – | 0.06 | – |
